Where “and” joins values, the source holds several entries; their conditions need not be identical. Equal values may be shown once.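 96-well plates; 48 h exposure; 5 concentrations. Endpoints by linear interpolation between flanking doses. Not reached: highest tested concentration assigned. GI50 is the concentration that inhibits growth by half. TGI: total growth inhibition.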
Assays:
Test in all cases: NCI tumour cell line growth inhibition, 48 h
DMS 114 small cell lung = test system: DMS 114 small cell lung
HOP-18 NSCLC = test system: HOP-18 NSCLC
P388 leukemia = test system: P388 leukemia
P388/ADR leukemia = test system: P388/ADR leukemia
SN12K1 renal = test system: SN12K1 renal
SNB-78 CNS = test system: SNB-78 CNS
M19-MEL melanoma = test system: M19-MEL melanoma
BT-549 breast = test system: BT-549 breast
MDA-N = test system: MDA-N
LXFL 529 NSCLC = test system: LXFL 529 NSCLC
RXF-631 renal = test system: RXF-631 renal

Row | SMILES | TGI (DMS 114 small cell lung) [µM] | TGI (HOP-18 NSCLC) | TGI (P388/ADR leukemia) [µM] | TGI (SN12K1 renal) | TGI (SNB-78 CNS) [µM] | TGI (M19-MEL melanoma) | TGI (MDA-N) [µM] | TGI (LXFL 529 NSCLC) [µM] | further results
1 | C=CCCCCn1c2ccccc2c2c(C)c3cnccc3c(C)c21 | 16.8 | 35.6 µM | 15.8 | 44.3 µM | 46.3 |  |  |  | TGI (P388 leukemia): 10.2 µM
2 | CCC1(OC(=O)CN)C(=O)OCc2c1cc1n(c2=O)Cc2cc3cc4c(cc3nc2-1)OCO4 (stereo not given) |  | 2.63 µM and 2.24 µM | < 0.01 | 0.225 µM and 1.04 µM | 81.8 | 1.04 µM and 0.416 µM |  |  | GI50 (HOP-18 NSCLC): 0.166 µM and 0.0534 µM; GI50 (P388/ADR leukemia): < 0.01 µM; GI50 (SN12K1 renal): < 0.01 µM; GI50 (SNB-78 CNS): 0.468 µM
3 | COC(=O)[C@@H]1C=C[C@H](NC(C)=O)C1 |  |  |  |  |  |  | > 100 |  | TGI (BT-549 breast): > 100 µM
4 | Cn1c(=O)n(CC2CS2)c2ccccc21 (stereo not given) | > 100 |  |  |  |  | > 100 µM |  | > 100 | 
5 | CCN(CCCl)c1cccc(NC(=O)c2ccc(C(=O)Nc3cccc(CN(C)C)c3)cc2)c1 |  |  |  |  |  |  | 0.286 |  | 
6 | CCN(CC)/[N+]([O-])=N/O |  |  |  |  | > 100 | > 100 µM |  | > 100 | TGI (RXF-631 renal): > 100 µM
